The values below come from patent US20080299098A1, “Broad-Spectrum Antibacterial and Antifungal Activity of Lactobacillus Johnsonii D115” (priority 2007, published 2008).

Each structure is given as a SMILES string. Like-named read-outs stand apart in the source and are kept apart here.

For one assay, the system named is Brachyspira pilosicoli. The conditions noted are these: for Plate count: hydrogen peroxide 3300 μM.
For assay [1], the system named is Brachyspira hyodysenteriae. The settings on record: for Plate count: hydrogen peroxide 3100 μM.
[2] abbreviates: hydrogen peroxide at approximately 3,000 μM, 2 h.

For the compound `OO` [hydrogen peroxide], the Plate count is given as 6.00 × 10^6 CFU per ml with Brachyspira pilosicoli (0 hr), 3.00 × 10^1 CFU per ml in the assay on Brachyspira pilosicoli (2 hr), 5.0 × 10^5 CFU per ml in assay [1] (0 hr) and 9 CFU per ml in assay [1] (2 hr). The reduction of count in the assay with Brachyspira pilosicoli (setting [2]) is recorded as 5 logs; in assay [1] (setting [2]) it was 4 logs.
